We go through 16 molecules from patent US6734292B1, “Pseudoerythromycin derivatives” (The Kitasato Institute, priority 2002, dated 2004).

Values joined by “and” are separate entries in the source; they are usually repeats but may differ in a detail not shown here. Equal entries are not always repeated.

As a reminder, the melting point is the temperature of the solid-liquid transition.

For one data set, the system named is THP-1 cells. The data set is described as follows: enhancing effect for differentiation-induction from human monocyte to macrophage (THP-1/Mφ system, MTT readout). The class given is cell-based. Details: key: ++: enhanced 100% or more; +: enhanced 50-100%; ±: enhanced 25-50%; −: no activity; /: expressed cytoxicity; NT: not tested or under assessment. The note with it: in comparison with enhancing action for differentiation-induction of EM 100 μM. The protocol: In order to confirm enhancing effect for differentiation-induction of the compounds of the present invention, the enhancing effect for differentiation-induction from human monocyte to macrophage was assayed. Method is performed as follows. THP-1 cells were collected from cultured liquid by centrifugation, adjusted the concentration to 2×10^5 cells/ml using medium (RPMI 1640) and distributed into the 48-well plate at 500 μl/well. PMA solution 10 μl and sample solution 5 μl were added in each well, stirred with mild shaking and incubated at 37° C. for 72-96 hours under 5% CO2. Further MTT 0.5 mg/ml solution was added at 300 μl/well, and incubated at 37° C. for 3 hours under 5% CO2. Supernatant solution was suctioned using the injection tube, added DMSO 500 μl using automatic continuous injector to dissolve formazan completely and transferred each 100 μl to the 96-well plate. The optical absorption was measured using the plate-reader.

Data set [1] concerns bleomycin-induced pulmonary fibrosis. The data set is described as follows: suppressive effect against bleomycin-induced pulmonary fibrosis (hydroxyproline levels in tissue). The class given is in vivo, mice. The note with it: BLM group: BLM 100 mg/kg tail vein day-0 only, day-28, individual mice.

Molecule `CC[C@H]1O[C@]2(O)O[C@H]([C@@H](C)C3O[C@@](C)(C[C@@H]3C)[C@H](O[C@@H]3OC(C)CC(N4CCCCC4)C3O)[C@@H](C)[C@H](O[C@H]3CC(C)(OC)[C@@H](O)C(C)O3)[C@H]2C)[C@]1(C)O` (stereo partly drawn) [EM734, de(3′-dimethylamino)-3′-piperidino-8,9-anhydro-pseudoerythromycin A 6,9-hemiketal] yielded a melting point of 128 to 130 °C. In addition, in the data set on THP-1 cells, the “activities in THP-1/Mφ system, Treated conc. 0.3 μM” value (“activities … Treated conc. 0.3 μM” for short) is recorded as “−”; the “activities in THP-1/Mφ system, Treated conc. 1 μM” value (from here on “activities … Treated conc. 1 μM”) is on record as “± (enhanced 25-50%)”; the “activities in THP-1/Mφ system, Treated conc. 3 μM” value (shortened to “activities … Treated conc. 3 μM”) is recorded as “+ (enhanced 50-100%)”; the “activities in THP-1/Mφ system, Treated conc. 10 μM” value (“activities … Treated conc. 10 μM” for short) is listed as “+ (enhanced 50-100%)”.
`CCCCCCNC1CC(C)O[C@@H](O[C@@H]2[C@@H](C)[C@H](O[C@H]3CC(C)(OC)[C@@H](O)C(C)O3)[C@@H](C)[C@@]3(O)O[C@H]([C@@H](C)C4O[C@@]2(C)C[C@@H]4C)[C@](C)(O)[C@@H](CC)O3)C1O` (stereo partly drawn) [EM738, bis-de(3′-N-methyl)-3′-N-hexyl-8,9-anhydro-pseudoerythromycin A 6,9-hemiketal] had a melting point of 115 to 118 °C. Besides, in the data set with THP-1 cells, the “activities … Treated conc. 0.3 μM” value is “−”; the “activities … Treated conc. 1 μM” value is “± (enhanced 25-50%)”; the “activities … Treated conc. 3 μM” value is “+ (enhanced 50-100%)”.
Turning to `CCCCCCN(CCCCCC)C1CC(C)O[C@@H](O[C@@H]2[C@@H](C)[C@H](O[C@H]3CC(C)(OC)[C@@H](O)C(C)O3)[C@@H](C)[C@@]3(O)O[C@H]([C@@H](C)C4O[C@@]2(C)C[C@@H]4C)[C@](C)(O)[C@@H](CC)O3)C1O` (stereo partly drawn) [EM739, bis-de(3′-N-methyl)-3′,3′-N,N-dihexyl-8,9-anhydro-pseudoerythromycin A 6,9-hemiketal], the melting point lay in the range of 158 to 160 °C. Further, in the data set on THP-1 cells, the “activities … Treated conc. 0.3 μM” value is given as “−”; the “activities … Treated conc. 1 μM” value is reported as “± (enhanced 25-50%)”; the “activities … Treated conc. 3 μM” value is “+ (enhanced 50-100%)”; the “activities … Treated conc. 10 μM” value is listed as “+ (enhanced 50-100%)”.
Take `CCC(O)C(C)(O)C1OC(=O)C(C)C(OC2CC(C)(OC)C(O)C(C)O2)C(C)C(OC2OC(C)CC(N(C)CCF)C2O)C2(C)CC(C)=C(O2)C1C` (stereo not drawn) [EM740]: in the data set on THP-1 cells, the “activities … Treated conc. 0.3 μM” value is on record as “± (enhanced 25-50%)”; the “activities … Treated conc. 1 μM” value is reported as “± (enhanced 25-50%)”; the “activities … Treated conc. 3 μM” value is listed as “+ (enhanced 50-100%)”; the “activities … Treated conc. 10 μM” value was “+ (enhanced 50-100%)”. For the same molecule, the “activities in THP-1/Mφ system, Treated conc. 30 μM” value (shortened to “activities … Treated conc. 30 μM”) in the data set on THP-1 cells was “+ (enhanced 50-100%)”.
In the case of `CCC(O)C(C)(O)C1OC(=O)C(C)C(OC2CC(C)(OC)C(O)C(C)O2)C(C)C(OC2OC(C)CC(N(C)CC#N)C2O)C2(C)CC(C)=C(O2)C1C` (stereo not drawn) [EM742, de(3′-N-methyl)-3′-cyanomethyl-8,9-anhydro-pseudoerythromycin A 6,9-hemiketal], in the data set with THP-1 cells, the “activities … Treated conc. 0.3 μM” value is “−”; the “activities … Treated conc. 1 μM” value is listed as “−”; the “activities … Treated conc. 3 μM” value was “−”; the “activities … Treated conc. 10 μM” value was “+ (enhanced 50-100%)”. Moreover, the “activities … Treated conc. 30 μM” value in the data set on THP-1 cells is “+ (enhanced 50-100%)”.
Turning to `COC1(C)CC(OC2C(C)C(=O)OC(C(C)=NO)C(C)C3=C(C)CC(C)(O3)C(OC3OC(C)CC(N(C)C)C3O)C2C)OC(C)C1O` (stereo not drawn) [EM743, de(12-hydroxy)-de[12-(1-hydroxypropyl)]-12-hydroxyoxime-8,9-anhydro-pseudoerythromycin A 6,9-hemiketal], in the data set with THP-1 cells, the “activities … Treated conc. 1 μM” value was “−”; the “activities … Treated conc. 3 μM” value was “± (enhanced 25-50%)”; the “activities … Treated conc. 10 μM” value is recorded as “−”.
For `CC[C@@H](O)[C@@](C)(O)[C@@H]1OC(=O)[C@H](C)[C@@H](O[C@H]2C[C@@](C)(OC)[C@@H](O)[C@H](C)O2)[C@H](C)[C@@H](O[C@@H]2O[C@H](C)C[C@H](N(C)CCCO)[C@H]2O)[C@@]2(C)CC(C)=C(O2)[C@@H]1C` [EM744], in the data set on THP-1 cells, the “activities … Treated conc. 1 μM” value is “−”; the “activities … Treated conc. 3 μM” value is given as “−”; the “activities … Treated conc. 10 μM” value is “−”.
As for `CC[C@@H](O)[C@@](C)(O)[C@@H]1OC(=O)[C@H](C)[C@@H](O[C@H]2C[C@@](C)(OC)[C@@H](O)[C@H](C)O2)[C@H](C)[C@@H](O[C@@H]2O[C@H](C)C[C@H](N(C)CCOC(C)=O)[C@H]2O)[C@@]2(C)CC(C)=C(O2)[C@@H]1C` [EM745, de(3′-N-methyl)-3′-N-(2-acetoxyethyl)-8,9-anhydro-pseudoerythromycin A 6,9-hemiketal], in the data set with THP-1 cells, the “activities … Treated conc. 0.3 μM” value is “−”; the “activities … Treated conc. 1 μM” value is “−”; the “activities … Treated conc. 3 μM” value is “++ (enhanced 100% or more)”; the “activities … Treated conc. 10 μM” value is listed as “++ (enhanced 100% or more)”. In addition, in the data set on THP-1 cells, the “activities … Treated conc. 30 μM” value is given as “++ (enhanced 100% or more)”.
Take `COC1(C)CC(OC2C(C)C(=O)OC(C(C)O)C(C)C3=C(C)CC(C)(O3)C(OC3OC(C)CC(N(C)C)C3O)C2C)OC(C)C1O` (stereo not drawn) [EM746, de[12-(hydroxypropyl)]-8,9-anhydro-pseudo erythromycin A 6,9-hemiketal]: in the data set with THP-1 cells, the “activities … Treated conc. 0.3 μM” value was “−”; the “activities … Treated conc. 1 μM” value was “± (enhanced 25-50%)”; the “activities … Treated conc. 3 μM” value is recorded as “+ (enhanced 50-100%)”; the “activities … Treated conc. 10 μM” value is recorded as “+ (enhanced 50-100%)”. The “activities … Treated conc. 30 μM” value in the data set with THP-1 cells is “+ (enhanced 50-100%)”.
As for `CC[C@@H](O)[C@@](C)(O)[C@@H]1OC(=O)[C@H](C)[C@@H](O[C@H]2C[C@@](C)(OC)[C@@H](O)[C@H](C)O2)[C@H](C)[C@@H](O[C@@H]2O[C@H](C)C[C@H](N3CCOCC3)[C@H]2O)[C@@]2(C)CC(C)=C(O2)[C@@H]1C` [EM747, de(3′-dimethylamino)-3′-morpholino-8,9-anhydro-pseudoerythromycin A 6,9-hemiketal], in the data set with THP-1 cells, the “activities … Treated conc. 3 μM” value was “−”; the “activities … Treated conc. 10 μM” value was “± (enhanced 25-50%)”; the “activities … Treated conc. 30 μM” value is “++ (enhanced 100% or more)”.
Regarding `CCC(O)C(C)(O)C1OC(=O)C(C)C(OC2CC(C)(OC)C(O)C(C)O2)C(C)C(OC2OC(C)CC(N(CCCCCCCCCCBr)CCCCCCCCCCBr)C2O)C2(C)CC(C)=C(O2)C1C` (stereo not drawn) [EM749, bis-de(3′-N-methyl)-3′,3′-N,N-di-(10-bromo-1-decanyl)-8,9-anhydro-pseudoerythromycin A 6,9-hemiketal], in the data set on THP-1 cells, the “activities … Treated conc. 1 μM” value is “± (enhanced 25-50%)”; the “activities … Treated conc. 3 μM” value is “+ (enhanced 50-100%)”; the “activities … Treated conc. 10 μM” value is reported as “+ (enhanced 50-100%)”; the “activities … Treated conc. 30 μM” value is recorded as “/insolule”.
Regarding `COC1(C)CC(OC2C(C)C(=O)OC(C(C)N)C(C)C3=C(C)CC(C)(O3)C(OC3OC(C)CC(N(C)C)C3O)C2C)OC(C)C1O` (stereo not drawn) [EM750, de(12-hydroxy)-de[12-(hydroxypropyl)]-12-amino-8,9-anhydro-pseudoerythromycin A 6,9-hemiketal], in the data set with THP-1 cells, the “activities … Treated conc. 1 μM” value was “−”; the “activities … Treated conc. 3 μM” value is listed as “−”; the “activities … Treated conc. 10 μM” value is listed as “± (enhanced 25-50%)”.
As for `CCC(O)C(C)(O)C1OC(=O)C(C)C(O)C(C)C(OC2OC(C)CC(NC)C2O)C2(C)CC(C)=C(O2)C1C` (stereo not drawn) [EM754, de(3-O-cladinosyl) -de(3′-N-methyl) -8,9-anhydrous-pseudoerythromycin A 6,9-hemiketal], in the data set with THP-1 cells, the “activities … Treated conc. 1 μM” value is on record as “−”; the “activities … Treated conc. 3 μM” value is recorded as “−”; the “activities … Treated conc. 30 μM” value is listed as “+ (enhanced 50-100%)”.
For `CC[C@H]1OC(=O)[C@H](C)[C@@H](O[C@H]2C[C@@](C)(OC)[C@@H](O)[C@H](C)O2)[C@H](C)[C@@H](O[C@@H]2O[C@H](C)C[C@H](N(C)C)[C@H]2O)[C@](C)(O)C[C@@H](C)C(=NO)[C@H](C)[C@@H](O)[C@]1(C)O` [EM oxim, reference compound], in the data set with THP-1 cells, the “activities … Treated conc. 1 μM” value is “−”; the “activities … Treated conc. 3 μM” value is “± (enhanced 25-50%)”; the “activities … Treated conc. 10 μM” value is listed as “± (enhanced 25-50%)”; the “activities … Treated conc. 30 μM” value is listed as “++ (enhanced 100% or more)”.
For `CC[C@H]1OC(=O)[C@H](C)[C@@H](O[C@H]2C[C@@](C)(OC)[C@@H](O)[C@H](C)O2)[C@H](C)[C@@H](O[C@@H]2O[C@H](C)C[C@H](N(C)C)[C@H]2O)[C@](C)(O)C[C@@H](C)C(=O)[C@H](C)[C@@H](O)[C@]1(C)O` [EM, Erythromycin], in the data set with THP-1 cells, the “activities … Treated conc. 1 μM” value is reported as “−”; the “activities … Treated conc. 3 μM” value is reported as “± (enhanced 25-50%)”; the “activities … Treated conc. 10 μM” value was “+ (enhanced 50-100%)”; the “activities … Treated conc. 30 μM” value is “+ (enhanced 50-100%)”.
As for bleomycin [BLM, reference compound], in data set [1], the “Hydroxyproline levels in tissue, Assay result” value is 785 µmol/L and 733 µmol/L; the “Hydroxyproline levels in tissue, Weight conversion” value is 7.1 µmol/g and 6.4 µmol/g.
